Source: PMC5823789 (Journal of medicinal chemistry, 2018)
Entries after “also recorded” stand apart in the source; their conditions may differ.

What was measured:
hNNMT [1] = target: T1, hNNMT (Homo sapiens, UniProt P40261); test: Isothermal titration calorimetry; format: binding
T1 sequence (P40261 1-264): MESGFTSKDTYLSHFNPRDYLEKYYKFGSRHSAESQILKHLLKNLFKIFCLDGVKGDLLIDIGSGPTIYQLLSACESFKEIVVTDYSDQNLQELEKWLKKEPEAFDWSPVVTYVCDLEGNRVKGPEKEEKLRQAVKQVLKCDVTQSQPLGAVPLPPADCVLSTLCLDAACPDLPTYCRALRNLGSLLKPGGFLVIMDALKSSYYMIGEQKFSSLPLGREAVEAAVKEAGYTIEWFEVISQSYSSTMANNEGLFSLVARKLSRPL

hNNMT [2] = target: T1, hNNMT; test: SAHH-coupled fluorescent assay of NNMT methyltransferase activity; format: biochemical
DOT1L = DOT1L (Homo sapiens, UniProt Q8TEK3); test: Selectivity assay, filter-based 3H-SAM methyltransferase assay; format: biochemical
Chain of DOT1L (Q8TEK3 whole entry, species assumed): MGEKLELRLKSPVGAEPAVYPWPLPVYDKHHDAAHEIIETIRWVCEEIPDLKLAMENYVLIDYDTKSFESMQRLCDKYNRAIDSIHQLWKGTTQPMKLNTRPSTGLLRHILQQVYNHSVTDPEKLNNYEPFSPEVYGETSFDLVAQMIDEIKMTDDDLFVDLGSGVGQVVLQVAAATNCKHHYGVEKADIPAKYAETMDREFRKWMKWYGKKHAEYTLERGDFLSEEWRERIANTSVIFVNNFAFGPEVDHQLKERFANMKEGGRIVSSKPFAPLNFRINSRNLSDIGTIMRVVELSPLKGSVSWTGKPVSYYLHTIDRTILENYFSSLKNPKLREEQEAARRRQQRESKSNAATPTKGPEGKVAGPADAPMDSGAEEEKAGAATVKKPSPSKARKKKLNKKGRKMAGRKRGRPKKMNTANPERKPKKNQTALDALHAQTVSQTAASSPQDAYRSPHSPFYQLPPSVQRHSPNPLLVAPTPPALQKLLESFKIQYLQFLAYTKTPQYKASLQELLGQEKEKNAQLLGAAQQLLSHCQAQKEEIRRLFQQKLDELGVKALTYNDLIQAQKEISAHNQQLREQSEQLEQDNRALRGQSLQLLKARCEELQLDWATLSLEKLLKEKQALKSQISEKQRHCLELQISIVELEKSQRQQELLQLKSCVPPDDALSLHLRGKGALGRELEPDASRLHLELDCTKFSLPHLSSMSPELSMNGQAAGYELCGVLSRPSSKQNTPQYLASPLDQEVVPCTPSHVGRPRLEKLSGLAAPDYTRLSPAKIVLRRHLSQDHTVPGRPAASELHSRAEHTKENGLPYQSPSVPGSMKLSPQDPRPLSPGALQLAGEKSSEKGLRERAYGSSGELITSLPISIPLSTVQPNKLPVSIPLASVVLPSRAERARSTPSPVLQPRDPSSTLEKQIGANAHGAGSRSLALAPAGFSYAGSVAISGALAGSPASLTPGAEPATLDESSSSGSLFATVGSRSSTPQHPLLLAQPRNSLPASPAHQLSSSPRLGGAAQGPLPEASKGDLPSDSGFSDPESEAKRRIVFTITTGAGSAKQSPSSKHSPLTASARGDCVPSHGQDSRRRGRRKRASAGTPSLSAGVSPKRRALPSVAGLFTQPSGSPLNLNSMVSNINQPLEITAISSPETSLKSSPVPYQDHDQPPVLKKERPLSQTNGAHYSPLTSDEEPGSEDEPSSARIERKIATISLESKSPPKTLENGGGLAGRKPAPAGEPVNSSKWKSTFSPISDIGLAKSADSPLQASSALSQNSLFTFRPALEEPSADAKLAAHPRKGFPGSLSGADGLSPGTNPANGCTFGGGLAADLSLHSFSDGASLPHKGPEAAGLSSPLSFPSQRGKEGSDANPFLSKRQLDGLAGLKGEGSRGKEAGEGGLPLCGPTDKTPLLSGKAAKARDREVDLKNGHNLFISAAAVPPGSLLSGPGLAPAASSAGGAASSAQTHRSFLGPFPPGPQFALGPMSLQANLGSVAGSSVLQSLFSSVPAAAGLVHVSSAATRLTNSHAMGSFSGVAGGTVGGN

BCDIN3D = target: T2, BCDIN3D (Homo sapiens, UniProt Q7Z5W3); test: Selectivity assay, scintillation proximity assay; format: biochemical
T2 sequence (Q7Z5W3 1-292): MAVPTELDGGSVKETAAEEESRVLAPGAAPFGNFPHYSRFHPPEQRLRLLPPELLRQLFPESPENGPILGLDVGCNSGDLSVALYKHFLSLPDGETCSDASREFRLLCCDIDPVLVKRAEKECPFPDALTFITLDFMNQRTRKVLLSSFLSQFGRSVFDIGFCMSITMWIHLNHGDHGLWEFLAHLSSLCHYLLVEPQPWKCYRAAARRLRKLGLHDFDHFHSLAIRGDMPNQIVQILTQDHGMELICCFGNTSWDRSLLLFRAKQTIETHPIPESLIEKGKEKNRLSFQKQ

SMYD2 = SMYD2 (Homo sapiens, UniProt Q9NRG4); test: Selectivity assay, scintillation proximity assay; format: biochemical
Chain of SMYD2 (Q9NRG4 whole entry, species assumed): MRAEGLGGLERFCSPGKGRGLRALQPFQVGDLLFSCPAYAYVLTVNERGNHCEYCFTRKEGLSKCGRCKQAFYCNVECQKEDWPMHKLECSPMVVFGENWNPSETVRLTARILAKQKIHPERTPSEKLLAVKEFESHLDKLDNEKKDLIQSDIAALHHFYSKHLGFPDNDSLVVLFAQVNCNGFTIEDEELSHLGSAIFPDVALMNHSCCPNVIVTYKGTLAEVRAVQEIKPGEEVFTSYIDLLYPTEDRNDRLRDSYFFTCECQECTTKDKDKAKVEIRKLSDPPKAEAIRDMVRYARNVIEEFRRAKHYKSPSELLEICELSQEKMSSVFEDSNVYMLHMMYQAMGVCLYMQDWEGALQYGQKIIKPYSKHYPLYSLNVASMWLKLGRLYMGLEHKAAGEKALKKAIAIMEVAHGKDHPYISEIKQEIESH

PRMT7 = target: T3, PRMT7 (Homo sapiens, UniProt Q9NVM4); test: Selectivity assay, scintillation proximity assay; format: biochemical
T3 sequence (Q9NVM4 1-692): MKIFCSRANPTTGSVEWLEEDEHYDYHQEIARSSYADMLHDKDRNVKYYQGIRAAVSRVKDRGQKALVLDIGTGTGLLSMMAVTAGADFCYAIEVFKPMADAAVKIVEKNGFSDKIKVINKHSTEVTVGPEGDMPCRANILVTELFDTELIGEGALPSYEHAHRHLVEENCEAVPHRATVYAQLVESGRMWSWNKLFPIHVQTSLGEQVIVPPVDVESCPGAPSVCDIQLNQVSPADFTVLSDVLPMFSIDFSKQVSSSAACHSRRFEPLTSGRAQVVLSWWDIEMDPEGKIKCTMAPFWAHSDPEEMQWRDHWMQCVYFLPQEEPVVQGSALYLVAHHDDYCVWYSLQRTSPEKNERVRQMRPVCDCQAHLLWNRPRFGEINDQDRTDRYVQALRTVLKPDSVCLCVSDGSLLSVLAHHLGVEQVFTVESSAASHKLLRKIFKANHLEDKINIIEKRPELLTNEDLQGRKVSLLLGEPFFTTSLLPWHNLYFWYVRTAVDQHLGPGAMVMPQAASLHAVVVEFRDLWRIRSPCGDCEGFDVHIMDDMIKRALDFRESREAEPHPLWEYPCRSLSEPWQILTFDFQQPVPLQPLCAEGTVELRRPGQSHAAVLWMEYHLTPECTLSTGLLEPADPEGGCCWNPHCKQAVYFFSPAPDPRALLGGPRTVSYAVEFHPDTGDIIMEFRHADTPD

[3] = substrate: NC(=O)c1cccnc1; test: purified protein, by the assay type; settings: other: SAHH-coupled assay; kcat 4.1 ± 0.2 min^-1; pH 7.5

## C[S+](CC[C@H](N)C(=O)O)C[C@H]1O[C@@H](n2cnc3c(N)ncnc32)[C@H](O)[C@@H]1O (stereo partly drawn) [SAM, S-5′-adenosyl-L-methionine, reference compound]
hNNMT [1]; read-out: Kd for binding to hNNMT (ITC), 25 °C, 50 mM Tris pH 8.0, 100 mM NaCl
  Kd: 56.4 ± 9.5 µM
hNNMT [2]; read-out: Km for NNMT
  Km: 24 ± 6.8 µM

## NC(=O)c1cccc(CCN(CCC[C@H](N)C(=O)O)C[C@H]2O[C@@H](n3cnc4c(N)ncnc43)[C@H](O)[C@@H]2O)c1 [compound 6, (S)-2-Amino-5-((((2R,3S,4R,5R)-5-(6-amino-9H-purin-9-yl)-3,4-di-hydroxytetrahydrofuran-2-yl)methyl)(3-carbamoylphenethyl)-amino)pentanoic acid]
DOT1L
  Hill slope, DOT1L: 1.1
BCDIN3D
  Hill slope, BCDIN3D: 1.3
SMYD2
  Hill slope, SMYD2: 0.6
PRMT7
  Hill slope, PRMT7: 1.1
hNNMT [2]; 200 μM nicotinamide, SAM varied 12.5 to 200 μM, Lineweaver-Burk
  Mechanism of inhibition with respect to cofactor SAM: SAM competitive; also recorded: competitive inhibition
hNNMT [2]; 250 μM SAM, nicotinamide varied 12.5 to 200 μM, Lineweaver-Burk
  Mechanism of inhibition with respect to substrate nicotinamide: noncompetitive inhibition

## NC(=O)c1cccnc1 [nicotinamide]
hNNMT [1]; no cofactor
  Binding to hNNMT in ITC in the absence of the cofactor: not observed

B1: hNNMT (Homo sapiens) (protein)
chain: MESGFTSKDTYLSHFNPRDYLEKYYKFGSRHSAESQILKHLLKNLFKIFCLDGVKGDLLIDIGSGPTIYQLLSACESFKEIVVTDYSDQNLQELEKWLKKEPEAFDWSPVVTYVCDLEGNRVKGPEKEEKLRQAVKQVLKCDVTQSQPLGAVPLPPADCVLSTLCLDAACPDLPTYCRALRNLGSLLKPGGFLVIMDALKSSYYMIGEQKFSSLPLGREAVEAAVKEAGYTIEWFEVISQSYSSTMANNEGLFSLVARKLSRPL
[3]
  Km: 20 ± 3 µM
